Entries after “also recorded” stand apart in the source; their conditions may differ.
What was measured:
Assay type in all cases: cell-based
[1] = system: infant fecal flora of the simulated distal colon; test: Small batch fermentation with each HMO in simulated distal colon environment; settings: for pH changes of the distal colon over time: starting pH 6.5, FIG. 3B; for production of isobutyric acid, distal colon / production of isovaleric acid, distal colon: small batch fermentation; for production of isobutyric acid, distal colon: FIG. 6A; for production of isovaleric acid, distal colon: FIG. 6B; for formic acid produced, distal colon / propionic acid produced, distal colon / acetic acid produced, distal colon / butyric acid produced, distal colon: 48 hours of fermentation; for formic acid produced, distal colon: FIG. 13; for propionic acid produced, distal colon: FIG. 15; for total short chain fatty acids produced, distal colon: FIG. 12; for acetic acid produced, distal colon: FIG. 14; for butyric acid produced, distal colon: FIG. 16
Text: (§1) Using a SHIME device (see the schematic diagram in FIG. 1A), fresh fecal samples containing bacteria flora were obtained from a healthy infant naturally delivered and exclusively breastfed, and inoculated into containers corresponding to the proximal colon and distal colon. Food material was fed to the stomach/small intestine end of the device three times a day for two weeks to support the growth and colonization of the flora in the proximal colon and distal colon. Here, the food material that was digested by the small intestine and entered the colon was prepared on the basis of the standard food material provided by ProDigest, the manufacturer of the SHIME device, with adjustment to the ratio of lactose, casein and whey protein; the standard food material was composed of: pectin (1 g/L), glucose (1 g/L), starch (1 g/L), cellobiose (1 g/L), proteose peptone (2 g/L), mucin (6 g/L)), lactose (2.1 g/L), casein (0.2 g/L), whey-lactalbumin (2.7 g/L), L-cysteine hydrochloride (0.2 g/L). The ratio of lactose, casein and whey protein in the food materials in each experiment of the present disclosure was adjusted to about 12:1:15, with reference to Le Blay et al. (2010), and stable and balanced nutrients were maintained, so as to simulate the food composition to which the infant's intestinal microecology may be exposed during regular breastfeeding or infant formula feeding. After the infant fecal flora was stabilized in the SHIME model for two weeks, the proximal colon and distal colon were sampled, aliquoted in glycerol to form a stock solution, and stored under anaerobic conditions at −80° C.
After the infant flora was inoculated into the SHIME model and stably grown for 2 weeks (as described in the aforementioned “Fecal inoculation and culture in SHIME device”), 10 mL of the flora in the proximal colon and distal colon was taken and respectively transferred to fermentation flasks under anaerobic conditions for small batch fermentation. On the basis of 43 mL basal buffer (for adjusting pH and simulating the corresponding colonic environment), each fermentation flask also contained 20 mL PBS buffer (for dissolving and introducing the HMO test substance) supplemented with different amounts of HMOs, so that the final concentration of each HMO was 0.02 g/L, 0.2 g/L, or 2 g/L, the pH of the proximal colon was set to 5.6, and the pH of the distal colon was set to 6.5. The flasks were incubated at 37° C. with shaking. During incubation, the pressure was measured at 0, 6 hours, 24 hours and 48 hours, followed by sampling for detection of pH and short chain fatty acids. Measurements were repeated three times.
During the HMO intervention, the gas production in each group was compared by measuring changes in pressure. Short chain fatty acid analysis including isobutyric acid, isovaleric acid, butyric acid, propionic acid, acetic acid, and formic acid, were analyzed by HPLC.
(§2) A two-tailed, paired t-test was performed on the data results. When there is a significant difference between two groups, and p<0.05, it is indicated with an asterisk *. Two asterisks ** indicate p<0.01. Three asterisks *** indicate p<0.001.

[2] = system: infant fecal flora of the simulated distal colon (SHIME model); test: SHIME fermentation with each HMO in simulated distal colon environment; settings: for decrease ratio of butyric acid, Day 14 versus Day 1, compared to control without HMO: 14 days of fermentation; for Butyric acid, Log2 (day 14/day 1): HMO 2 g/L in feed, 14 days of HMO intervention, biological replicate 1
Text: as §1
The infant fecal flora sampled and stored as in “Fecal inoculation and culture in SHIME device” was inoculated into the SLIME model to investigate the fermentation of HMOs in the SHIME device. Two batches of experiments were done sequentially, and three sample groups (or control) were simultaneously done in each batch of experiments. In three sets of experimental devices, the devices simulating the proximal colon and distal colon were inoculated separately (see the schematic diagram of FIG. 1B). Food material was fed three times a day, and after 4 days of incubation, an HMO was blended into the feed food material (no HMO was added to the control group). 280 mg of HMO (at a concentration of 2 g/L) and 60 mL of pancreatic juice were added into 140 mL of a stock solution for each food material. Only one experiment was performed for each set of HMO and control, so the biological replicate was 1. SHIME fermentation continued until Day 14 after the HMO intervention, and samples were taken for detection at different time periods during the fermentation period.
as §2

[3] = system: infant fecal flora of the simulated proximal colon; test: Small batch fermentation with each HMO in simulated proximal colon environment; settings: for formic acid produced, proximal colon: FIG. 8; for acetic acid produced, proximal colon: FIG. 9; for total short chain fatty acids produced, proximal colon: FIG. 7; for pressure changes (gas production) in the proximal colon: FIG. 4A
Text: Using a SHIME device (see the schematic diagram in FIG. 1A), fresh fecal samples containing bacteria flora were obtained from a healthy infant naturally delivered and exclusively breastfed, and inoculated into containers corresponding to the proximal colon and distal colon. Food material was fed to the stomach/small intestine end of the device three times a day for two weeks to support the growth and colonization of the flora in the proximal colon and distal colon. Here, the food material that was digested by the small intestine and entered the colon was prepared on the basis of the standard food material provided by ProDigest, the manufacturer of the SHIME device, with adjustment to the ratio of lactose, casein and whey protein; the standard food material was composed of: pectin (1 g/L), glucose (1 g/L), starch (1 g/L), cellobiose (1 g/L), proteose peptone (2 g/L), mucin (6 g/L)), lactose (2.1 g/L), casein (0.2 g/L), whey-lactalbumin (2.7 g/L), L-cysteine hydrochloride (0.2 g/L). The ratio of lactose, casein and whey protein in the food materials in each experiment of the present disclosure was adjusted to about 12:1:15, with reference to Le Blay et al. (2010), and stable and balanced nutrients were maintained, so as to simulate the food composition to which the infant's intestinal microecology may be exposed during regular breastfeeding or infant formula feeding. After the infant fecal flora was stabilized in the SHIME model for two weeks, the proximal colon and distal colon were sampled, aliquoted in glycerol to form a stock solution, and stored under anaerobic conditions at −80° C. After the infant flora was inoculated into the SHIME model and stably grown for 2 weeks (as described in the aforementioned “Fecal inoculation and culture in SHIME device”), 10 mL of the flora in the proximal colon and distal colon was taken and respectively transferred to fermentation flasks under anaerobic conditions for small batch fermentation. On the basis of 43 mL basal buffer (for adjusting pH and simulating the corresponding colonic environment), each fermentation flask also contained 20 mL PBS buffer (for dissolving and introducing the HMO test substance) supplemented with different amounts of HMOs, so that the final concentration of each HMO was 0.02 g/L, 0.2 g/L, or 2 g/L, the pH of the proximal colon was set to 5.6, and the pH of the distal colon was set to 6.5. The flasks were incubated at 37° C. with shaking. During incubation, the pressure was measured at 0, 6 hours, 24 hours and 48 hours, followed by sampling for detection of pH and short chain fatty acids. Measurements were repeated three times. During the HMO intervention, the gas production in each group was compared by measuring changes in pressure. Short chain fatty acid analysis including isobutyric acid, isovaleric acid, butyric acid, propionic acid, acetic acid, and formic acid, were analyzed by HPLC. A two-tailed, paired t-test was performed on the data results. When there is a significant difference between two groups, and p<0.05, it is indicated with an asterisk *. Two asterisks ** indicate p<0.01. Three asterisks *** indicate p<0.001.

[4] = HMO 2 g/L, 48 hours of fermentation

Compound | pH changes of the distal colon over time ([1]; HMO 2 g/L) | production of isobutyric acid, distal colon [1] | production of isovaleric acid, distal colon [1] | decrease ratio of butyric acid, Day 14 versus Day 1, compared to control without HMO [2] | Butyric acid, Log2 (day 14/day 1) [2] | formic acid produced, distal colon [1] | propionic acid produced, distal colon [1] | total short chain fatty acids produced, distal colon ([1]; HMO 2 g/L, 24 hours) | acetic acid produced, distal colon [1] | butyric acid produced, distal colon [1] | total short chain fatty acids produced, distal colon ([1]; HMO 0.02 g/L, 6 hours) | formic acid produced, proximal colon ([3]; 48 hours of fermentation) | acetic acid produced, proximal colon ([3]; 48 hours of fermentation) | total short chain fatty acids produced, proximal colon ([3]; HMO 2 g/L, 24 hours of fermentation) | total short chain fatty acids produced, proximal colon [3, 4] | pressure changes (gas production) in the proximal colon ([3]; HMO 2 g/L) | propionic acid produced, proximal colon ([3]; 48 hours of fermentation, FIG. 10) | butyric acid produced, proximal colon ([3]; 48 hours of fermentation, FIG. 11) | pH changes over time ([1]; HMO 0.2 g/L, colon section not given) | pressure changes (gas production) in the proximal colon ([3]; HMO 0.2 g/L)
2′-fucosyllactose [2′-FL] | tend to significantly lower the pH | significantly reduce | most potent; also recorded: significantly reduce | good improving effect compared to the control | −0.67 | – | – | – | – | – | – | – | – | – | – | – | – | – | – | –
3-fucosyllactose [3-FL] | tend to significantly lower the pH | significantly reduce | significantly reduce | – | −0.33 | more significant | more significant | relatively more short chain fatty acids | – | – | – | – | – | – | – | – | – | – | – | –
CC(=O)N[C@H]1[C@H]([C@H](O)[C@H](O)CO)O[C@@](O[C@H]2[C@@H](O)[C@@H](CO)O[C@@H](O[C@H]3[C@H](O)[C@@H](O)C(O)O[C@@H]3CO)[C@@H]2O)(C(=O)O)C[C@@H]1O (stereo partly drawn) [3-SL, 3′-sialyl lactose] | – | significantly reduce | – | the smallest | −0.13 | more significant | more significant | – | more significant | significantly increased | relatively more short chain fatty acids | significantly increased | significantly increased; also recorded: more significant | produces more SCFA | significantly more SCFA | higher pressure | – | – | – | –
CC(=O)N[C@H]1[C@H]([C@H](O)[C@H](O)CO)O[C@@](OC[C@H]2O[C@@H](O[C@H]3[C@H](O)[C@@H](O)[C@H](O)O[C@@H]3CO)[C@H](O)[C@@H](O)[C@H]2O)(C(=O)O)C[C@@H]1O [6-SL, 6′-sialyl lactose] | – | – | – | good improving effect compared to the control | −0.66 | more significant | – | relatively more short chain fatty acids | more significant | significantly increased | – | significantly increased; also recorded: more significant | significantly increased | – | significantly more SCFA | higher pressure | significantly increased | significantly increase | – | –
CC(=O)N[C@H]1[C@H](O[C@H]2[C@@H](O)[C@@H](CO)O[C@@H](O[C@H]3[C@H](O)[C@@H](O)C(O)O[C@@H]3CO)[C@@H]2O)O[C@H](CO)[C@@H](O)[C@@H]1O[C@@H]1O[C@H](CO)[C@H](O)[C@H](O)[C@H]1O (stereo partly drawn) [LNT, Lacto-N-tetraose] | – | significantly reduce | – | good improving effect compared to the control | −0.70 | more significant | – | – | more significant | – | relatively more short chain fatty acids | – | – | – | – | – | – | – | tends to better lower the pH | tends to produce gas better

— patent publication US20230285431A1, “Human Milk Oligosaccharide for Improving Health of Intestinal Microenvironment and Use Thereof” (Inner Mongolia Yili Industrial Group Co., Ltd., priority 2020, published 2023)
